# US10537607B2, “Treatment of autoimmune and/or inflammatory disease using novel caveolin modulators” (E&B TECHNOLOGIES LLC, priority 2013, dated 2020)
# “Also recorded” adds a separate entry of the source.
# Columns and labels:
# [1] = test system: VEGF-induced NO release (eNOS activity) in BAEC; assay: VEGF-induced NO release in cultured BAEC; type: cell-based, bovine; conditions: for effect on VEGF-induced NO release (in words) / inhibition of VEGF-induced NO release: 6 h pretreatment; for effect on basal (unstimulated) NO release: six-hour pretreatment, NO-specific chemiluminescence
# Protocol: VEGF-induced NO release experiments were performed as previously described.
# […] Media was removed and fresh serum-free DMEM was added, with or without VEGF (10^−9 M) for 30 minutes. Media was collected, cells were trypsinized and counted, and nitrites levels in the supernatant were determined by using a Sievers NO chemiluminescence analyzer.
# [2] = test system: mustard oil-induced vascular permeability; type: in vivo, mouse; conditions: mice, one-hour pretreatment, AP-Cav 1 mg/kg or same molar dose, vs carrier peptide alone, 30 min
# Protocol: Plasma leakage in mouse skin was studied using the Miles assay as previously described. Briefly, male Swiss mice (30-35 g) were anesthetized and injected with Evans blue (30 mg/kg in PBS; Sigma). […] (5% in mineral oil), an analog of mustard oil (Pierce, Rockford, Ill.) was applied on the right ear with a cotton tip. The left ear was used as a control and was treated with mineral oil alone. After 30 minutes, the anesthetized animals were sacrificed, perfused, ears were removed, dried and weighed. Evans blue was extracted from the ears with formamide and quantified spectrophotometrically at 595 nm.
# [3] = test system: dextran sulfate sodium colitis; assay: Dextran sulfate sodium model of inflammatory bowel disease; type: in vivo, mouse; conditions: C57B1/6 mice, DSS 2% in drinking water, 2.5 mg/kg i.p. daily from day 1
# Protocol: C57B1/6 mice are fed dextran sulfate sodium 2% in the drinking water for 9 days. Body weights are measured daily. At the end of 9 days, mice are sacrificed and the first distal centimeter of the colon subject to histopathological analysis. Sections are scored according to the scoring system described in Jirkof et al., Burrowing is a sensitive behavioral assay for monitoring general wellbeing during dextran sulfate sodium colitis in laboratory mice. Laboratory animals. 2013, 47(4):274-83. doi: 10.1177/0023677213493409. PubMed PMID:23828853.
# multiple sclerosis = assay: Treatment of patients diagnosed with multiple sclerosis; type: in vivo, human; conditions: 80 mg per day by subcutaneous injection
# Protocol: Patients diagnosed with MS, including relapsing remitting and primary progressive types, are treated with Endo-5 CavAB (SEQ ID NO.1/SEQ ID NO. 6) (or other caveolin analog) at 80 mg per day by subcutaneous injection. […] The changes in the patient receiving the treatment are measured using the Multiple Sclerosis Functional Composite. See, e.g., the website of the National MS Society: Clinical Study Measures.
# HUVEC = assay: CPP imaging of live HUVEC (pulse/chase epifluorescence microscopy); type: cell-based, human; conditions: for intracellular staining after pulse: carboxyfluorescein-Endo5 and rhodamine-AP, 10^−6M, 1 h at 37° C.; for intracellular staining after chase: two-hour chase in absence of CPP
# Protocol: Freshly isolated HUVEC were grown in M199 media supplemented with glutamine, 10% FBS and endothelial cell growth supplement on Petri dishes with glass bottom. Since CPPs bind non-specifically to glass, the background fluorescence was reduced by pretreating glass-bottom Petri dishes with a blocking solution containing unlabelled AP and Endo5 for 30 minutes (5×10^−5 M) in colorless M199 media with 1% FBS.
# After cell seeding, media was removed and carboxyfluorescin-labeled Endo5 and Rhodamine-labeled AP were added to cells (10^−5M) and cells were incubated at 37° C. and 5% CO2 for 1 hour (pulse). Media was removed, cells were rinsed once with warm culture media and peptide uptake was rapidly visualized on a Zess Axiovert inverted fluorescence microscope by performing a Z-stack of captured images followed by volume deconvolution (Openlab software). The new media was left on cells for an additional 2 hours (total 3 hours) to chase CPP localization, and cells were visualized again (chase).
# In the present study, epifluorescence microscopy experiments were performed in live HUVEC to compare the uptake mechanism of Endo5 to AP. After blocking glass bottom Petri dishes with unlabeled AP and Endo5 to minimize non-specific binding of labeled peptides, freshly isolated HUVEC were grown to 50% confluent and labeled with a “pulse” of carboxyfluorescein-Endo5 and rhodamine-AP (10^−6M) for 1 h, rinsed, followed by a two-hour “chase” for a total of 3 hours.
# BAEC = assay: Quantification of internalization of fluorophore-labelled peptides; type: cell-based, bovine; conditions: cultured endothelial cells
# Protocol: Cultured BAEC were grown in 6-well plates until confluence was reached. Cells were washed and incubated in 1 mL of DMEM containing labeled peptides (10^−6 M) for 1, 2, 4 or 6 hours at 37° C., washed three times with cold PBS containing 0.1 M glycine (pH 4) to remove non-specific surface staining.
# After complete media removal, cells were trypsinized, centrifuged and proteins were extracted by adding 150 μL of SDS-based or Triton X-100 lysis buffer. Membranes were removed by centrifugation, and internalized peptides were quantified by using a fluorescence plate reader (Perseptive Biosystems).
# Cells incubated with peptides for 5 minutes and washed as described were used as basal surface staining. Linearity of both fluorophores used was determined by performing a concentration-fluorescence curve using lysis solution. Experiments with each fluorophore were performed individually to prevent cross-interference.
# traumatic brain injury = assay: Traumatic brain injury, controlled cortical impact model; type: in vivo, rat; conditions: rats
# Description: Sprague Dawley rats (10 week old) are anesthetized using 1-2% isoflurane and fixed in a stereotactic frame. The skull is surgically exposed and a craniectomy 2.5 mm in radius is made centered on coordinates −0.2 mm anterior and +0.2 mm lateral to midlineat the fronto-parietal cortex. A controlled cortical impactor (Pittsburgh Precision Instruments, Inc., Pittsburgh, Pa.) is used to deliver an impact using a velocity of 6.0 m/s and depth of 1.0 mm below the dura mater and duration of impact of 150 ms. The impactor is angled to impact the skull perpendicular to the brain at the point of impact. Animals are maintained at normal body temperature throughout the procedure. Following the impact, the incision is sutured and the animals are allowed to recover.
# Neurological deficits are scored using the system of Clark assessed 24 and 48 hours post injury. See, Clark W et al., Citicoline treatment for experimental intracerebral hemorrhage in mice. Stroke; a journal of cerebral circulation. 1998; 29(10):2136-40. PubMed PMID: 9756595.
# At 48 hours post TBI, rats are sacrificed and the brains sectioned and tissue processed for immunohistochemistry. […] See, Glushakov et al., Prostaglandin F2alpha FP receptor antagonist improves outcomes after experimental traumatic brain injury, Journal of neuroinflammation. 2013; 10(1):132. doi: 10.1186/1742-2094-10-132. PubMed PMID:24172576.
# [4] = test system: experimental autoimmune encephalitis; conditions: experimental model of autoimmune encephalitis; cited from earlier work
# [5] = BAEC, peptide 10^−5 M, VEGF 10^−9 M 30 min
substance,measurement,setting,value
"Endo5 (RRPPR) with cargo DGIWKASFTTFTVTKYWFYR, caveolin-1 amino acids 82-101, fused to its C-terminus (RRPPRDGIWKASFTTFTVTKYWFYR; listed as Homo sapiens) [Endo5-Cav]","eNOS inhibition (VEGF-induced NO release), in words","[1]; BAEC, 10^−5 M, 4 hours pretreatment",complete eNOS inhibition
same,inhibition of VEGF-induced NO release after pretreatment with AP,"[1]; BAEC, Endo5-Cav 10^−5 M 6 h, AP 5×10^−5 M pretreatment",30%
same,inhibition of VEGF-induced NO release after pretreatment with Endo5,"[1]; BAEC, Endo5-Cav 10^−5 M 6 h, Endo5 5×10^−5 M pretreatment",13%
same,fate of the inhibition of VEGF-induced NO release after pretreatment with either AP or Endo5,"[1]; BAEC, construct 10^−5 M 6 h, AP or Endo5 5×10^−5 M",partially prevented
same,effect on VEGF-induced NO release (in words),[1]; [5],completely impaired; also recorded: near-maximum effect; also recorded: completely blocked
same,inhibition of VEGF-induced NO release,[1]; [5],91%
same,effect on basal (unstimulated) NO release,"[1]; BAEC, 10^−5 M",no significant effect
same,rate of uptake relative to AP-Cav,"[1]; inferred from 2 h Endo5-Cav vs 6 h AP-Cav pretreatment, 10^−5 M",approximately three times
same,inhibition of mustard oil-induced vascular leakage,[2],58%
Endo5-CavAB: 19-mer: Endo5 fused to Cav AB domain (amino acids 82-95 of human caveolin-1); second generation cavtratin (RRPPRDGIWKASFTTFTVT; listed as Homo sapiens),inhibition of VEGF-induced NO release,"[1]; BAEC, peptide 2×10^−6 M",49%
same,effect on VEGF-induced NO release (in words),[1]; [5],completely blocked
same,histopathologic score of the colon,[3],improve the histopathologic sore
same,weight loss at 9 days,[3],reduce the weight loss
same,"symptoms of MS (motor function, gait)",multiple sclerosis,improves the symptoms of MS
"RQIKIWFQNRRMKWKK (listed as Rattus norvegicus) [AP, 16-mer Antennapedia cell-permeable peptide, reference compound]",effect on VEGF-induced NO release (in words),[1]; [5],no significant effect
same,effect on basal (unstimulated) NO release,"[1]; BAEC, 10^−5 M",no significant effect
same,intracellular staining after pulse,HUVEC,diffuse punctate cytoplasmic staining
same,intracellular staining after chase,HUVEC,more concentrated rather than diffuse pattern
"RRPPR [Endo5, five-amino acid cell-permeable transport peptide]",effect on VEGF-induced NO release (in words),[1]; [5],no significant effect
same,effect on basal (unstimulated) NO release,"[1]; BAEC, 10^−5 M",no significant effect
same,rate of uptake / internalization relative to AP,BAEC,three times greater
same,intracellular staining after pulse,HUVEC,diffuse punctate cytoplasmic staining
same,intracellular staining after chase,HUVEC,more concentrated rather than diffuse pattern
"cavtratin: caveolin mimetic, a fusion peptide of a cell penetrating peptide to the caveolin scaffolding domain; first generation (RQIKIWFQNRRMKWKKDGIWKASFTTFTVTKYWFYR)",neurological deficits (Clark score),"traumatic brain injury; 2.5 mg/kg i.p. immediately after TBI and at 24 hours, scored 24 and 48 hours post injury",reduces the observed neurological deficits
same,GFAP expression in the lesion penumbra,"traumatic brain injury; 2.5 mg/kg i.p., 48 hours post TBI",reduces GFAP expression
same,histopathologic score of the colon,[3],improve the histopathologic sore
same,weight loss at 9 days,[3],reduce the weight loss
same,blood brain barrier disruption,[4],inhibited
same,clinical score / functional deficits,[4],improve; also recorded: ameliorates
same,edema,[4],block
same,inflammatory cell (CD45+) invasion into the brain parenchyma,[4],block; also recorded: inhibited
